Results taken from patent US10450266B2, “Sulfonate compound, photoacid generator, and resin composition for photolithography” (SAN-APRO LIMITED, priority 2014, dated 2019).

Experiments:
Assay type in all cases: physicochemical
[1] = Solvent solubility; conditions: for Solvent solubility, PGMEA / Solvent solubility, Butyl acetate / Solvent solubility, Toluene: 25° C.
Experimental: In a test tube, 0.1 g of the synthesized photoacid generator was placed, and an organic solvent (butyl acetate, toluene or PGMEA) was added thereto in 0.2 g portions under a condition where the temperature was adjusted to 25° C. until the photoacid generator was completely dissolved. In this connection, in the case where the photoacid generator was not completely dissolved even when 20 g of the solvent was added, the photoacid generator was evaluated as one that was not dissolved.

[2] = Molar extinction coefficient at i-line (365 nm), UV-visible spectrophotometer; conditions: 365 nm (i-line), 0.25 mmol/L in acetonitrile, 1 cm cell
Experimental: The synthesized photoacid generator was diluted to 0.25 mmol/L with acetonitrile, and using an ultraviolet-visible spectrophotometer (UV-2550 available from SHIMADZU CORPORATION), the absorbance in a range of 200 nm to 500 nm was measured with a cell having an optical path length (a cell length) of 1 cm. The molar extinction coefficient of i-line (365 nm) (ε365) was calculated from the following equation. ε365(L·mol^−1·cm^−1)=A365/(0.00025 mol/L×1 cm) [In the equation, A365 represents the absorbance at 365 nm.] <Resist Curing Properties>

[3] = Thermal decomposition temperature (TG/DTA, 2% weight reduction); conditions: point of 2% weight reduction, 10° C./minute, nitrogen atmosphere
Experimental: The synthesized photoacid generator was measured for the change in weight under a temperature increasing condition of 10° C./minute from 30° C. to 500° C. under a nitrogen atmosphere using a thermal gravimetric/differential thermal analyzer (TG/DTA 6200, available from Seiko Instruments Inc.), and a point where the weight was reduced by 2% was defined as the thermal decomposition temperature.

SMILES	Solvent solubility, PGMEA [1] [wt %]	Solvent solubility, Butyl acetate [1] [wt %]	Solvent solubility, Toluene [1] [wt %]	Molar extinction coefficient [2] [L/mol/cm]	Thermal decomposition temperature [3] [°C]	solubility to a solvent (in words) ([1]; summary of Table 1)
CN(OS(=O)(=O)CC12CCC(CC1=O)C2(C)C)C(=O)c1ccc2ccccc2c1 (stereo not shown) [A-1]	20	20	12	80	230	
COc1ccc2cc(C(=O)N(C)OS(=O)(=O)CC34CCC(CC3=O)C4(C)C)ccc2c1 (stereo not shown) [A-2]	15	15	10	120	225	
COc1cc2c(OC)cccc2cc1C(=O)N(C)OS(=O)(=O)CC12CCC(CC1=O)C2(C)C (stereo not shown) [A-3]	15	15	10	360	225	
COc1cc2c(OC)cccc2cc1C(=O)N(C)OS(C)(=O)=O [A-4]	20	20	10	300	225	

Further lines, results first:

Solvent solubility, PGMEA [1] [wt %]	Solvent solubility, Butyl acetate [1] [wt %]	Solvent solubility, Toluene [1] [wt %]	Molar extinction coefficient [2] [L/mol/cm]	Thermal decomposition temperature [3] [°C]	solubility to a solvent (in words) ([1]; summary of Table 1)	SMILES
10	10	10	400	225		COc1cc2c(OC)cccc2cc1C(=O)N(C)OS(=O)(=O)c1c(F)c(F)c(F)c(F)c1F [A-5]
15	15	10	450	210		CC(=O)c1ccc(Sc2ccc(C(=O)N(C)OS(=O)(=O)CC34CCC(CC3=O)C4(C)C)cc2)cc1 (stereo not shown) [A-6]
15	15	10	6500	220		COc1ccc2cc(C(=O)N(C)OS(=O)(=O)CC34CCC(CC3=O)C4(C)C)c(=O)oc2c1 (stereo not shown) [A-7]
5	5	10	9000	240		CN(OS(=O)(=O)CC12CCC(CC1=O)C2(C)C)C(=O)c1c2ccccc2cc2ccccc12 (stereo not shown) [A-8]
0.5	1	0.5	330	225	insufficient	CC1(C)C2CCC1(CS(=O)(=O)OC1C(=O)c3cccc4cccc(c34)C1=O)C(=O)C2 (stereo not shown) [A′-1, reference compound]
